Read-outs that look alike come from different tables or passages of the source.
What was measured:
[1] = test system: HCV (JFH-5aFlucm4); test: Evaluation of anti-HCV activity 1: huh7.5.1 cells inoculated with HCV carrying renilla luciferase reporter; assay type: cell-based; conditions: Hepatitis C virus
Experimental: To evaluate the anti-HCV activity of the compound represented by formula 1 of the present invention, the following experiment was performed.
The hepatoma cell line huh7.5.1 was distributed in a 12-well cell culture plate at the density of 50,000 cells/well. The cells were cultured in DMEM (Dulbecco's Modified Eagle's Medium 12800-017, GIBCO Co.) supplemented with 10% (v/v) FBS (Fetal Bovine Serum SH30406.02, Hyclone Co.) and 1% (v/v) antibiotics (penicillin/streptomycin solution SV30010, Hyclone Co.) in a 37° C. 6.0% CO2 incubator (CO2 Incubator 311, Forma Scientific Co, Lnc. USA) for 24 hours to lead cell attachment on the plate. Then, the cells were inoculated with HCV (JFH-5aFlucm4, PLoS One. 2011; 6(8):e228808.) having renilla luciferase gene as a reporter for 3 hours. Upon completion of the virus inoculation, the cell culture medium was replaced with the medium containing the compounds prepared in Examples 1˜24 at the concentration of 1 μM each. The cells were cultured in a 37° C. 6.0% CO2 incubator (CO2 Incubator 311, Forma Scientific Co, Lnc. USA) for 3 days. Three days after the infection, the cell culture medium was collected to measure the cytotoxicity in the following Experimental Example 3. The cells attached on the plate were washed with PBS (phosphate buffered saline) and then lysed by treating 100 μl of 1× passive lysis buffer (Promega, E1941). The cell lysate (10 μl) was added to renilla luciferase assay reagent (50 μl) in renilla luciferase assay system (Promega, E2820), followed by measurement of luminescence for 10 seconds using the luciferase measure program with Luminometer (GLOMAX 20/20 Luminometer, Promega). At this time, the measurement of luminescence was performed in triplicate with the groups treated with the compounds of Examples 1˜24 and the non-treated control group. The mean value was calculated and compared. The luminescence of each compound over the concentration was converted into EC50 (half maximal effective concentration) by using sigma plot program, and the results are shown in Table 2.

[2] = test system: HCV replicon NK/R2AN; test: Evaluation of anti-HCV activity 2: inhibition of HCV replication, huh7.5.1 cells with replicon NK/R2AN, renilla luciferase; assay type: cell-based; conditions: for EC50: Hepatitis C virus; for EC50 (in words): duplicated HCV treated with compound
Experimental: To evaluate the anti-HCV activity, that is the activity to inhibit HCV replication, of the compound represented by formula 1 of the present invention, the following experiment was performed.
The hepatoma cell line huh7.5.1 having NK/R2AN, the replicon with which the replication and translation of HCV could be measured, was distributed in a 12-well cell culture plate at the density of 50,000 cells/well. The cells were cultured in DMEM (Dulbecco's Modified Eagle's Medium 12800-017, GIBCO Co.) supplemented with 10% (v/v) FBS (Fetal Bovine Serum SH30406.02, Hyclone Co.), 1% (v/v) antibiotics (penicillin/streptomycin solution SV30010, Hyclone Co.), and G418 (600 μg/mL, Calbiochem) in a 37° C. 6.0% CO2 incubator (CO2 Incubator 311, Forma Scientific Co, Lnc. USA) for 24 hours to lead cell attachment on the plate. Then, the cells were inoculated with HCV having renilla luciferase gene as a reporter for 3 hours. Upon completion of the virus inoculation, the cell culture medium was replaced with the medium containing the compounds prepared in Examples 1˜24 were added to the culture medium at the concentrations of 40 pM˜1 μM each. The cells were cultured in a 37° C. 6.0% CO2 incubator (CO2 Incubator 311, Forma Scientific Co, Lnc. USA) for 3 days. Three days after the infection, the cell culture medium was collected to measure the cytotoxicity in the following Experimental Example 3. The cells attached on the plate were washed with PBS (phosphate buffered saline) and then lysed by treating 100 μl of 1× passive lysis buffer (Promega, E1941). The cell lysate (10 μl) was added to renilla luciferase assay reagent (50 μl) in renilla luciferase assay system (Promega, E2820), followed by measurement of luminescence for 10 seconds using the luciferase measure program with Luminometer (GLOMAX 20/20 Luminometer, Promega). At this time, the measurement of luminescence was performed in triplicate with the groups treated with the compounds of Examples 1˜24 and the non-treated control group. The mean value was calculated and compared. The luminescence of each compound over the concentration was converted into EC50 (half maximal effective concentration) by using sigma plot program, and the results are shown in Table 3. At this time, when EC50 was under 100 pM, it was marked as A; when EC50 was in the range of 100 pM 1 nM, it was marked as B; when EC50 was in the range of 1 nM˜100 nM, it was marked as C; and when EC50 was over 100 nM, it was marked as D. The results are shown in Table 3.

[3] = Huh-7.5.1, 72 h, read-out: EC50 grade
[4] = Huh-7.5.1, replicon huh7.5.1 cells, Table 3, read-out: EC50

SMILES | EC50 [1, 3] [nM] | EC50 ([2]; Huh-7.5.1) [nM] | EC50 [2, 3] [nM] | EC50 (in words) [2] | EC50 ([1]; Huh-7.5.1) [nM] | EC50 [2, 4] [nM]
COC(=O)N[C@@H](C(=O)N1CCC[C@H]1C(=O)Nc1ccc2c(c1)Cc1cc(NC(=O)[C@@H]3CCCN3C(=O)[C@H](NC(=O)OC)c3ccccc3)ccc1-2)c1ccccc1 [Example 4, dimethyl((1R,1′R)-((2S,2′S)-2,2′-(((9H-fluorene-2,7-diyl)bis(azandiyl))bis(carbonyl))bis(pyrrolidine-2,1-diyl))bis(2-oxo-1-phenylethane-2,1-diyl))dicarbamate] | 1 to 100 | < 0.1 | < 0.1 | significantly low |  | 
COC(=O)N[C@@H](C(=O)N1CCC[C@H]1C(=O)Nc1ccc(-c2ccc(NC(=O)[C@@H]3CCCN3C(=O)[C@H](NC(=O)OC)c3ccccc3)cc2C)c(C)c1)c1ccccc1 [Example 3, dimethyl((1R,1′R)-((2S,2′S)-2,2′-(((2,2′-dimethyl-[1,1′-biphenyl]-4,4′-diyl)bis(azandiyl))bis(carbonyl))bis(pyrrolidine-2,1-diyl))bis(2-oxo-1-phenylethane-2,1-diyl))dicarbamate] | < 1 |  | < 0.1 | significantly low | < 1 | < 0.1
COC(=O)N[C@@H](C(=O)N1CCC[C@H]1C(=O)Nc1ccc(-c2ccc(NC(=O)[C@@H]3CCCN3C(=O)[C@H](NC(=O)OC)c3ccccc3)cc2Br)c(Br)c1)c1ccccc1 [Example 7, dimethyl((1R,1′R)-((2S,2′S)-2,2′-(((2,2′-dibromo-[1,1′-biphenyl]-4,4′-diyl)bis(azandiyl))bis(carbonyl))bis(pyrrolidine-2,1-diyl))bis(2-oxo-1-phenylethane-2,1-diyl))dicarbamate] | < 1 |  | < 0.1 | significantly low | < 1 | < 0.1
COC(=O)N[C@@H](C(=O)N1CCC[C@H]1C(=O)Nc1ccc(-c2ccc(NC(=O)[C@@H]3CCCN3C(=O)[C@H](NC(=O)OC)c3ccccc3)cc2F)c(F)c1)c1ccccc1 [Example 5, dimethyl((1R,1′R)-((2S,2′S)-2,2′-(((2,2′-difluoro-[1,1′-biphenyl]-4,4′-diyl)bis(azandiyl))bis(carbonyl))bis(pyrrolidine-2,1-diyl))bis(2-oxo-1-phenylethane-2,1-diyl))dicarbamate] | < 1 |  | < 0.1 | significantly low | < 1 | < 0.1
COC(=O)N[C@@H](C(=O)N1CCC[C@H]1C(=O)Nc1ccc2c(c1)C(=O)c1cc(NC(=O)[C@@H]3CCCN3C(=O)[C@H](NC(=O)OC)c3ccccc3)ccc1-2)c1ccccc1 [Example 24, dimethyl((1R,1′R)-((2S,2′S)-2,2′-(((9-oxo-9H-fluorene-2,7-diyl)bis(azandiyl))bis(carbonyl))bis(pyrrolidine-2,1-diyl))bis(2-oxo-1-phenylethane-2,1-diyl))dicarbamate] | 1 to 100 |  | < 0.1 | significantly low |  | < 0.1
COC(=O)N[C@@H](C(=O)N1CC(=O)C[C@H]1C(=O)Nc1ccc(-c2ccc(NC(=O)[C@@H]3CC(=O)CN3C(=O)[C@H](NC(=O)OC)c3ccccc3)cc2)cc1)c1ccccc1 [Example 9, dimethyl((1R,1′R)-((5S,5′S)-5,5′-(([1,1′-biphenyl]-4,4′-diylbis(azandiyl))bis(carbonyl))bis(3-oxopyrrolidine-5,1-diyl))bis(2-oxo-1-phenylethane-2,1-diyl))dicarbamate] | < 1 | < 0.1 | < 0.1 | significantly low | < 1 | 
COC(=O)N[C@@H](C(=O)N1CCCC[C@@H]1C(=O)Nc1ccc(-c2ccc(NC(=O)[C@H]3CCCCN3C(=O)[C@H](NC(=O)OC)c3ccccc3)cc2)cc1)c1ccccc1 [Example 11, dimethyl((1R,1′R)-((2R,2′R)-2,2′-(([1,1′-biphenyl]-4,4′-diylbis(azandiyl))bis(carbonyl))bis(piperidine-2,1-diyl))bis(2-oxo-1-phenylethane-2,1-diyl))dicarbamate] | > 100 |  | > 100 |  |  | 
COC(=O)N[C@@H](C(=O)N1CCC[C@H]1C(=O)Nc1ccc(-c2ccc(NC(=O)[C@@H]3CCCN3C(=O)[C@H](NC(=O)OC)c3ccccc3)cc2C(F)(F)F)c(C(F)(F)F)c1)c1ccccc1 [Example 2, dimethyl((1R,1′R)-((2S,2′S)-2,2′-(((2,2′-bis(trifluoromethyl)-[1,1′-biphenyl]-4,4′-diyl)bis(azandiyl))bis(carbonyl))bis(pyrrolidine-2,1-diyl))bis(2-oxo-1-phenylethane-2,1-diyl))dicarbamate] | < 1 |  | < 0.1 | significantly low | < 1 | < 0.1
COC(=O)N[C@@H](C(=O)N1CSC[C@H]1C(=O)Nc1ccc(-c2ccc(NC(=O)[C@@H]3CSCN3C(=O)[C@H](NC(=O)OC)c3ccccc3)cc2)cc1)c1ccccc1 [Example 21, dimethyl(1S,1S′)-2,2′-((4R,4R)-4,4′-(biphenyl-4,4′-diylbis(azandiyl))bis(oxomethylene)bis(thiazolidine-4,3-diyl))bis(2-oxo-1-phenylethane-2,1-diyl)bicarbamate] | 1 to 100 | < 0.1 | < 0.1 | significantly low |  | 
